Test results from PMC8533149 (Biomolecules, 2021).

Each compound was assayed on HIV-1 LTR-III G-quadruplex (FAM/TAMRA-labeled LTR-III) (assay: FRET melting assay, LTR-III G4). Settings: Table S1 primary screening, ligand:ODN 50:1, singlicate.
Format: binding
Procedure, shortened: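 Melting is followed by FAM fluorescence (ex 495/em 520 nm) while heating at 1 °C/min from 30 to 95 °C. Labelled ODN at 0.5 μM, pre-annealed in 10 mM Li cacodylate, 100 mM KCl, pH 7.4, mixed with ligand at 50:1 (25 μM), or 20:1 and 2:1 for titration. ΔTm is relative to the 0.25% DMSO buffer control.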

Compound | LTR-III ΔTm [°C]
COc1ccc(C=C2N=C(C)N(CCNC(=O)OC(C)(C)C)C2=O)cc1 [M 2022b] | 0
CC1=NC(=Cc2ccc(O)cc2)C(=O)N1CCCNC(=O)OC(C)(C)C [X 10] | -0.2
Oc1ccc2cc(Br)ccc2c1 [N 576.3] | 0
CNC(=O)C(=Cc1ccc(Br)cc1)NC(=O)c1ccccc1 [GR 83] | -0.8
CC1=NC(=Cc2cccc(F)c2O)C(=O)N1C [N 781] | 0
Oc1cccc2nc3ccccc3nc12 [M 1255] | -0.6
COc1cc(O)ccc1/C=C1N=C(/C=C/c2cccs2)N(C)C\1=O [N 1039] | 1.1
CN1C(=O)C(=Cc2ccc(O)cc2)N=C1CCCCNC(=O)OC(C)(C)C [Boc-AV-GFP] | 0.2
COc1cc(C=C2N=C(C)N(C)C2=O)ccc1O [M 2491] | -0.2
CC(C)OC(=O)c1noc(=O)c(O)c1-c1ccc(N(C)C)cc1 [SA 305C] | -0.6
CN1C(=O)C(=Cc2ccc(O)cc2N(C)C)N=C1C=Cc1ccncc1 [MID 213] | 0.9
CC1=NC(=Cc2c[nH]c3cccc(C)c23)C(=O)N1C [M 1974] | 0
CCC1=NC(=Cc2cc(C(C)(C)C)c(O)c(C(C)(C)C)c2)C(=O)N1C [AL 135.2] | -1.3
CN1C(=O)C(=Cc2ccc(O)c(O)c2)N=C1C=Cc1ccccc1 [M 2499b] | 0.3
COc1ccc(-c2c(C(=O)OC(C)C)noc2C(=O)NCc2ccccn2)cc1 [SA 350C] | -0.6
COc1ccc(C=C2N=C(C)N(OC)C2=O)cc1 [M 312] | -0.2
CN1C=NC(=Cc2ccc(O)cc2)C1=O [GA 02] | -0.4
O=C(O)c1ccc(-c2ccccc2)cc1 [X 26] | -0.1
CCN(CC)c1ccc(C=C2N=C(C(C)=O)N(C)C2=O)cc1 [M 1706] | -0.4
CC(C)OC(=O)c1noc(C(=O)NCc2ccccc2)c1-c1ccc(O)cc1 [SA 345B] | -0.8
CC1=NC(=Cc2cc3c4c(c2)CCCN4CCC3)C(=O)N1CCCC(=O)O [N 152] | 0.3
COc1ccccc1C=CC1=NC(=Cc2ccc(O)cc2)C(=O)N1CCNC(C)=O [ccE 7] | 0.3
COC(=O)c1noc(C(=O)N2CCCCC2)c1-c1ccc(OC)cc1 [SA 561C] | -1

Compound | LTR-III ΔTm [°C]
CCOC(=O)CN1C(=O)C(=Cc2cc3c4c(c2)CCCN4CCC3)N=C1C [M 1343] | 0
CCN(CC)c1ccc(C=C2N=C(C)N(CCCC(=O)O)C2=O)cc1 [GC 03] | 0.4
CC1=NC(=Cc2ccc(C)o2)C(=O)N1C [N 1020] | -0.2
COc1ccc(C=CC2=NC(=Cc3cc(OC)ccc3OC)C(=O)N2C)cc1 [AI 118] | -0.1
COc1ccc(C=C2N=C(C=C(O)c3ccc(F)cc3)N(C)C2=O)cc1 [SV 30] | -0.4
COc1ccc2cc(C(c3ccc(C)cc3)C(c3ccc(C)cc3)c3ccc4cc(OC)ccc4c3)ccc2c1 (stereo not shown) [M 1362.2] | -0.6
CC1=NC(=Cc2ccc([N+](=O)[O-])c(O)c2)C(=O)N1C [SV 52.7] | -0.2
CC(C)OC(=O)c1noc(C(=O)NC2CCCCC2)c1-c1ccccc1 [SA 325E] | -0.6
CC1=NC(=Cc2ccc([N+](=O)[O-])cc2)C(=O)N1C1CCCCC1 [ZS 146] | 0.2
CCCC1=NC(=Cc2ccc(O)cc2)C(=O)N1C [GA 05] | -0.5
COc1ccc(C=C2N=C3C(=O)NC(=O)CN3C2=O)cc1 [SA 130] | 0.4
CCN(CC)c1ccc(/C=C2\N=C(C)N(C)C2=O)c(O)c1 [M 1933] | -0.3
COc1cc(/C=C2N=C(/C=C/c3c(F)c(F)nc(F)c3F)N(C)C\2=O)cc(OC)c1O [N 980] | 1
O=C1CN2C(=O)C(=Cc3ccc(O)cc3)N=C2C(=O)N1 [SA 102] | 0.2
CC1=NC(=Cc2ccc(O)cc2Br)C(=O)N1C [ZS 174] | -0.3
O=C1NC(=S)NC1=Cc1ccc(O)cc1 [M 2497] | 0
CC1=NC(=Cc2cc3c4c(c2)CCCN4CCC3)C(=O)N1C [X 4] | 1
CCN(CC)c1ccc(C=C2N=C(C)N(CCCCO[Si](c3ccccc3)(c3ccccc3)C(C)(C)C)C2=O)cc1 [N 162] | 0.2
CN1C(=O)C(=Cc2ccc(O)cc2)N=C1C=Cc1ccc(O)c(Br)c1 [ccA 10] | 0.7
CC(C)OC(=O)c1noc(C(=O)NCc2ccccc2)c1-c1ccc(N(C)C)cc1 [SA 332E1] | -0.6
COc1ccc(O)c(C=C2N=C(C=Cc3cc(Br)c(O)c(Br)c3)N(C)C2=O)c1 [N 851B] | 1.2
CC(C)OC(=O)c1noc(C(=O)N2CCOCC2)c1-c1cccc2ccccc12 [SA 343A] | -0.4
CN1C(=O)C(=Cc2ccc(O)cc2)N=C1C=Cc1ccccc1 [M 996a] | 0.1

Compound | LTR-III ΔTm [°C]
CC(=O)NC(=Cc1ccc([N+](=O)[O-])cc1)C(=O)NC1CCCCC1 [X 28] | -0.3
CN1C(=O)C(=Cc2ccc(O)cc2)N=C1C=Cc1cc(Cl)nc(Cl)c1 [N 886] | -0.2
CC(C)OC(=O)c1noc(C(=O)N2CCCC2)c1-c1ccccc1 [SA 307A] | -0.3
CC1=NC(=Cc2cccc3ccccc23)C(=O)N1C [SV 51.12] | 0.4
CCN(CC)c1ccc(C=C2N=C(C=Cc3ccc(OC)cc3)N(C)C2=O)c(B(F)F)c1 [M 1971a] | -0.3
CC(=O)Oc1ccc(C=C2N=C(C=Cc3ccccc3)N(C)C2=O)cc1 [M 1009A] | 0.5
COC(=O)c1ccc(C(N)=C2N=C(C)N(C)C2=O)cc1 [ZS 199] | -0.4
CCC1=NC(=Cc2ccc(O)cc2)C(=O)N1C [GA 04] | -0.1
CCN(CC)c1ccc(/C=C2\N=C3C(=O)NCCN3C2=O)cc1 [JL 19] | 0.1
COc1ccc(O)c(C=C2N=C(C)N(C)C2=O)c1 [M 2360] | -0.3
CC1=NC(=Cc2ccccc2)C(=O)N1Cc1ccccc1 [ZS142] | -1.4
O=C1NC(=S)SC1=Cc1ccc(O)c(Br)c1 [SAI 117] | -0.2
CCC1=NC(=Cc2ccc(O)cc2)C(=O)N1O [GA 15] | -0.1
C[C@H](CS)C(=O)N1CCC[C@H]1C(=O)O [SA 333] | -0.4
CC(=O)Oc1ccc(C=C2N=C(C)N(CCNC(=O)OC(C)(C)C)C2=O)cc1 [M 678] | -0.4
CNC(=O)c1onc(C(=O)OC(C)C)c1-c1ccc(N(C)C)cc1 [SA 332.1] | -0.4
CC(C)OC(=O)c1noc(=O)c(O)c1-c1cccc2ccccc12 [SA 300B] | -0.9
CCC(=O)Oc1ccc(C=C2N=C(CC)OC2=O)cc1 [M 292] | -0.6
CCC1=NC(=Cc2ccc(O)cc2)C(=O)N1OC [M 316] | -0.3
CN1C(=O)C(=Cc2ccc(O[Si](c3ccccc3)(c3ccccc3)C(C)(C)C)cc2)N=C1c1ccccc1 [Amm 75] | -0.3
COc1ccc(-c2c(C(=O)OC(C)C)noc2C(=O)NCc2ccccc2)cc1 [SA 341C] | -0.2
NC(=C1N=C2C=CC=CN2C1=O)c1ccccc1 [ZS 167] | -0.1
O=C1NC(C=Cc2cc(Br)c(O)c(Br)c2)=NC1=Cc1ccc(O)cc1 [M 295] | -0.5

Compound | LTR-III ΔTm [°C]
COc1cc(/C=C2\N=C(C)N(C)C2=O)c(OC)cc1O [N 1036] | 0.5
CCCC1=NC(=CN(C)C)C(=O)N1C [M 1945.1] | -0.6
CCCCN(CCCC)c1cccc(C=C2N=C(C)N(C)C2=O)c1 [M 1600] | -0.4
CC1=CC(C)(C)N(C)c2ccc(C=CC3=NC(=Cc4ccc5c(c4)C(C)=CC(C)(C)N5C)C(=O)N3CCCC(=O)O)cc21 [N 62] | 0.6
CC1=NC(=Cc2ccc(O)cc2)C(=O)N(O)C1=O [M 800] | -0.2
CC(=O)Oc1ccc(C=C2N=C(C=Cc3ccncc3)N(C)C2=O)cc1 [M 1009B] | 0.5
COC(=O)c1ccc(C=C2N=C(C=Cc3ccc(OC)cc3)N(C)C2=O)cc1 [AI 116] | 0.8
CC1=NC(=Cc2ccc(N)c(O)c2)C(=O)N1C [X 5] | 0.9
COc1ccc(C=C2N=C(C=C(O)c3ccc(C)cc3)N(C)C2=O)cc1 [SV 29] | -0.2
COc1cc(O)ccc1/C=C/C1=[N+](C)c2ccccc2C1(C)C.[O-][Cl+3]([O-])([O-])[O-] [M 2761a] | 0.5
CC1=NC(=Cc2cccs2)C(=O)N1C [M 1583.3] | 0.1
CN1C(=O)C(=Cc2ccccc2)N=C1Nc1ccccc1 [M 2385b1] | -0.1
CN1C(=O)C(=Cc2ccc(O)c(F)c2)N=C1c1ccccc1 [SA 49.1] | 0
CC1=NC(=Cc2ccc(N(C)C)cc2)C(=O)N1CCNC(=O)OC(C)(C)C [M 2022a] | -0.2
COc1ccc(-c2c(C(=O)OC(C)C)noc2C(=O)N2CCOCC2)cc1 [SA 341A] | -0.7
COc1cc(O)ccc1C=C1N=C(C=Cc2c(F)c(F)nc(F)c2F)N(C)C1=O [N 967] | 0.8
CC1=NC(=Cc2cc(Br)cc(Br)c2)C(=O)N1C [SV 51.5] | -0.3
CC1=NC(=Cc2cc3c4c(c2)CCCN4CCC3)C(=O)N1CCO [N 111] | 1
CN(C)c1ccc(C(O)(c2ccc(N(C)C)cc2)c2ccccn2)cc1 [M 1122] | -0.6
CC(=O)NC(=Cc1ccc(O)cc1)C(=O)NO [SV 7] | 0
CCN(CC)c1ccc(C=C2N=C(C)N(C)C2=O)cc1 [GC 01] | 0.4
COc1cc(O)ccc1C=C1N=C(C(=Cc2ccncc2)c2ccccc2)N(C)C1=O [N 1142] | 0.1
